# Reference: PMC10380726, “Cyanocobalamin-Modified Colistin–Hyaluronan Conjugates: Synthesis and Bioactivity” (International Journal of Molecular Sciences, 2023)
# Legend:
# [1] = tested on: Caco-2 cell monolayer; assay: Caco-2 cell permeability assay; type: in vitro ADME, human
# Protocol: The human colon adenocarcinoma cell line Caco-2 was obtained from the Russian Cell Culture Collection (Institute of Cytology, Russian Academy of Sciences, St. Petersburg, Russia). Caco-2 cells were cultured in DMEM medium supplemented with 10% FBS, L-glutamine, and penicillin/streptomycin in 75 cm^2 cell culture flasks (Jet Biofil, Guangzhou, China) at 37 °C in a humidified atmosphere containing 5% CO2 in a CO2 incubator. When the cells reached 60-70% confluence, the cells were sub-cultured into new flasks (1:6 ratio). […] Samples were collected from the bottom chamber and fluorescence intensity was measured using a fluorescence plate reader (excitation 492 nm; emission 520 nm). […] The content of vitamin B12 and the content of the HA-CT-B12 conjugate equivalent to vitamin B12 were determined spectrophotometrically at 360 nm using a calibration curve. […] The Papp was calculated using the following equation [33]:(1) […]0 where Papp is the apparent permeability coefficient (cm/s); dQ/dt -is the permeation rate (μg/s); A is the monolayer area (0.3 sm^2); and C0 is the concentration in the apical chamber at the initial moment of time (μg/mL).
# [2] = tested on: P. aeruginosa ATCC 27853; assay: Antimicrobial activity, microtiter broth dilution method; type: cell-based, Pseudomonas aeruginosa; settings: 1 × 10^7 CFU/mL, Mueller–Hinton broth, 24 h at 37 °C, OD 630 nm, concentration equivalent to CT
# Protocol: The antimicrobial activity of HA–CT–B12 was tested using the microtiter broth dilution method, as previously reported. P. aeruginosa ATCC 27853 (Museum of Microbiological Cultures, State Research Institute of Highly Pure Biopreparations, St. Petersburg, Russia) was used as the experimental microorganism. Briefly, HA–CT–B12 conjugate stock solutions were prepared by diluting samples in Mueller–Hinton broth to a maximum 2-fold concentration equivalent to CT. Serial dilutions of CT (64 to 0.25 μg/mL) were then plated on Luria-Bertani agar culture plates. The antimicrobial efficacy of the HA–CT–B12 conjugates was confirmed by the absence of P. aeruginosa growth. P. aeruginosa suspension was serially diluted 1:100 in Müller–Hinton broth to obtain a concentration of approximately 1 × 10^7 CFU/mL. Then, 125 µL of the inoculum was added to the wells of the culture plate containing HA–CT–B12 solutions in Müller–Hinton broth. […] The plate was incubated for 24 h at 37 °C and the optical density (OD) was measured at 630 nm using an ELx808™ Absorbance Microplate Reader (BioTek Instruments, Winooski, VT, USA). Relative bacterial growth (%) was calculated as the ratio of OD630 at each concentration of the test samples to OD630 in the control (0 μg/mL). […]
substance,measurement,setting,value
cyanocobalamin [vitamin B12],Apparent permeability coefficient (Papp),"[1]; Caco-2 monolayer, day 21, apical to basolateral, PBS, 2 h with sampling every 30 min, 1 mg CT, 28.5 mg vitamin B12 or 300 mg conjugate in 5 mL PBS, 0.5 mL applied, B12 and conjugate read at 360 nm, mean of n = 3",5.4 ×10⁻⁶ cm/s
colistin [CT],Minimum inhibitory concentration (MIC),[2],2 µg/mL
same,Apparent permeability coefficient (Papp),[1]; Caco-2,0.04 ×10⁻⁶ cm/s
